Assay results reported in the supplement of paper PMC10307832.

Assays:
Assay in all cases: relative viability (nuclei count vs DMSO), 5 days (fraction); higher = more cells survive
Palbociclib + Bortezomib = compound: CC(=O)c1c(C)c2cnc(Nc3ccc(N4CCNCC4)cn3)nc2n(C2CCCC2)c1=O [Palbociclib] + CC(C)C[C@H](NC(=O)[C@H](Cc1ccccc1)NC(=O)c1cnccn1)B(O)O [Bortezomib] (partner 0.002 µM)
In short: (§1)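 After 5 days of treatment, lung cancer cells in 1536-well plates were fixed and stained in a single step (final 0.05% Triton X-100, 1% formaldehyde, 1 ug/ml Hoechst) and their nuclei counted on 4× images. Treatment had been applied by pin tool the day after seeding as one drug alone or as a fixed anchor-drug dose with five library-drug doses (not always all listed) in √10 steps. Relative viability is the nuclei count of treated wells divided by that of vehicle wells, and values are medians of duplicate plates.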

Palbociclib + OSI-027 = compound: CC(=O)c1c(C)c2cnc(Nc3ccc(N4CCNCC4)cn3)nc2n(C2CCCC2)c1=O [Palbociclib] + COc1cccc2cc(-c3nc([C@H]4CC[C@H](C(=O)O)CC4)n4ncnc(N)c34)[nH]c12 [OSI-027] (partner 0.5 µM)
In short: as §1

Palbociclib + Crizotinib = compound: CC(=O)c1c(C)c2cnc(Nc3ccc(N4CCNCC4)cn3)nc2n(C2CCCC2)c1=O [Palbociclib] + C[C@@H](Oc1cc(-c2cnn(C3CCNCC3)c2)cnc1N)c1c(Cl)ccc(F)c1Cl [Crizotinib] (partner 1 µM)
In short: as §1

Palbociclib + Olaparib = compound: CC(=O)c1c(C)c2cnc(Nc3ccc(N4CCNCC4)cn3)nc2n(C2CCCC2)c1=O [Palbociclib] + O=C(c1cc(Cc2n[nH]c(=O)c3ccccc23)ccc1F)N1CCN(C(=O)C2CC2)CC1 [Olaparib] (partner 8 µM)
In short: as §1

Row | Cell Line | relative viability (Palbociclib + Bortezomib; first compound 0.01 µM) | relative viability (Palbociclib + Bortezomib; first compound 0.03162 µM) | relative viability (Palbociclib + Bortezomib; first compound 0.1 µM) | relative viability (Palbociclib + Bortezomib; first compound 0.3162 µM) | relative viability (Palbociclib + Bortezomib; first compound 1 µM) | relative viability (Palbociclib + OSI-027; first compound 0.01 µM) | relative viability (Palbociclib + OSI-027; first compound 0.03162 µM) | relative viability (Palbociclib + OSI-027; first compound 0.1 µM) | relative viability (Palbociclib + OSI-027; first compound 0.3162 µM) | relative viability (Palbociclib + OSI-027; first compound 1 µM) | relative viability (Palbociclib + Crizotinib; first compound 0.01 µM) | relative viability (Palbociclib + Crizotinib; first compound 0.03162 µM) | relative viability (Palbociclib + Crizotinib; first compound 0.1 µM) | relative viability (Palbociclib + Crizotinib; first compound 0.3162 µM) | relative viability (Palbociclib + Crizotinib; first compound 1 µM) | relative viability (Palbociclib + Olaparib; first compound 0.01 µM) | relative viability (Palbociclib + Olaparib; first compound 0.03162 µM) | relative viability (Palbociclib + Olaparib; first compound 0.1 µM) | relative viability (Palbociclib + Olaparib; first compound 0.3162 µM) | relative viability (Palbociclib + Olaparib; first compound 1 µM)
1 | SW 1573 | 1.15 | 0.928 | 0.985 | 0.842 | 0.506 | 0.662 | 0.468 | 0.389 | 0.357 | 0.235 | 0.776 | 0.672 | 0.685 | 0.758 | 0.615 | 0.463 | 0.452 | 0.454 | 0.359 | 0.291
2 | NCI-H2023 | 0.96 | 0.279 | 0.705 | 0.654 | 0.391 | 0.358 | 0.335 | 0.298 | 0.265 | 0.154 | 0.568 | 0.58 | 0.49 | 0.367 | 0.272 | 0.467 | 0.478 | 0.402 | 0.374 | 0.262
3 | NCI-H1651 | 1 | 0.9 | 0.981 | 0.915 | 0.8 | 0.663 | 0.639 | 0.706 | 0.663 | 0.334 | 0.895 | 0.864 | 0.869 | 0.808 | 0.79 | 0.177 | 0.196 | 0.225 | 0.203 | 0.206
4 | EMC-BAC-2 | 1.09 | 0.812 | 0.905 | 0.785 | 0.665 | 0.368 | 0.346 | 0.29 | 0.318 | 0.29 | 0.738 | 0.716 | 0.699 | 0.646 | 0.496 | 0.511 | 0.48 | 0.506 | 0.51 | 0.448
5 | NCI-H1993 | 1.23 | 0.905 | 0.969 | 0.763 | 0.814 | 0.533 | 0.505 | 0.513 | 0.524 | 0.509 | 0.806 | 0.757 | 0.718 | 0.617 | 0.625 | 1.14 | 0.907 | 0.945 | 0.846 | 0.703
6 | UMC-11 | 0.934 | 0.625 | 0.466 | 0.292 | 0.238 | 0.462 | 0.417 | 0.302 | 0.308 | 0.286 | 0.603 | 0.519 | 0.428 | 0.346 | 0.177 | 0.332 | 0.375 | 0.341 | 0.298 | 0.136
7 | LXF-289 | 0.997 | 0.933 | 0.971 | 0.852 | 0.677 | 0.815 | 0.411 | 0.697 | 0.734 | 0.561 | 0.747 | 0.811 | 0.782 | 0.684 | 0.612 | 1.1 | 1.08 | 0.951 | 0.969 | 0.865
8 | NCI-H3122 | 1.04 | 1.02 | 0.919 | 0.745 | 0.513 | 0.82 | 0.602 | 0.346 | 0.172 | 0.169 | 0.246 | 0.244 | 0.252 | 0.188 | 0.175 | 0.596 | 0.576 | 0.635 | 0.584 | 0.528
9 | NCI-H23 | 1.12 |  | 0.87 | 0.703 | 0.553 | 0.576 |  | 0.502 | 0.463 | 0.408 | 0.613 |  | 0.436 | 0.458 | 0.428 | 0.375 | 0.311 | 0.325 | 0.305 | 0.289
10 | NCI-H460 | 1.11 | 0.937 | 0.909 | 0.745 | 0.172 | 0.708 | 0.531 | 0.366 | 0.376 | 0.159 | 0.938 | 0.781 | 0.581 | 0.582 | 0.205 | 0.433 | 0.289 | 0.378 | 0.323 | 0.165
11 | LC-2-ad | 1.03 |  | 0.779 | 0.704 | 0.469 | 0.746 |  | 0.604 | 0.625 | 0.474 | 0.417 |  | 0.421 | 0.44 | 0.328 | 0.744 | 0.71 | 0.688 | 0.642 | 0.553
12 | HCC-827 | 1.09 | 0.804 | 0.954 | 0.948 | 0.857 | 0.809 | 0.52 | 0.707 | 0.563 | 0.479 | 0.904 | 0.889 | 0.844 | 0.787 | 0.781 | 0.62 | 0.573 | 0.477 | 0.563 | 0.443
